Three molecules from patent publication US10100097B2, “GIP-GLP-1 dual agonist compounds and methods” (Zealand Pharma A/S, priority 2012, dated 2018) can be followed below.

SMILES strings stand for the structures. Numbered stars: 1 amine (or outer) side, 2 acyl side, 3 side chain; on linkers, the order of the positions; unused ones are H or OH. Square brackets hold non-standard residues; d marks the D form. Side chains are listed from the residue outwards. Peptide text beside a SMILES is read from it. * marks the point of attachment. C16 diacid = O=C(O)CCCCCCCCCCCCCCC(=O)*; γGlu = O=C(O)[C@H](CCC(=O)[*:2])N[*:1]; Palmitoyl = CCCCCCCCCCCCCCCC(=O)*; Aib = CC(C)(N)C(=O)O

The target in the experiment is T1, human GIP R (Homo sapiens, UniProt P48546).
T1 construct: expressed in transfected cells
T1 sequence (P48546 22-466): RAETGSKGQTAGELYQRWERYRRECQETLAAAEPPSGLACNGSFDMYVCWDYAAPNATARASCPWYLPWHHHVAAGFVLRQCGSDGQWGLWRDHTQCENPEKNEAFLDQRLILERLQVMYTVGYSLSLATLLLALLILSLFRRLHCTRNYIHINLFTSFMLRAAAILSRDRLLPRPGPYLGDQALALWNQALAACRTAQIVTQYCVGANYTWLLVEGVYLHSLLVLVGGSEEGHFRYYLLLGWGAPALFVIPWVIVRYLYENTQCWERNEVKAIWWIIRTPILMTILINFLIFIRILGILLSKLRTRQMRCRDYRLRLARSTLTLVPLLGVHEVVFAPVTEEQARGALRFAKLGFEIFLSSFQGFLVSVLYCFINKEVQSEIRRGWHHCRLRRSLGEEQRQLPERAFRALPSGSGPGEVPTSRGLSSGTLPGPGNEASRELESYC
In words: Human GIP receptor (GIP R) activity assay, cAMP induction (AlphaScreen cAMP kit). The experiment is classed as cell-based. As to conditions: HEK293 cells expressing the human GIP R; cAMP induction, 15 min at 37° C.; average values of multiple determinations; read-out: GIP R (EC50 in nM). Here is the method: Human GIP Receptor (GIP R) and GLP-1 Receptor (GLP-1 R) Activity Assay
In vitro effects of peptide conjugates of the invention were assessed by measuring the induction of cAMP following stimulation of the respective receptor by GIP, GLP1 or analogues of these, as outlined in the invention, using the AlphaSceen® cAMP kit from Perkin-Elmer according to instructions. Briefly. HEK293 cells expressing the human GIP R or GLP-1 R (stable cell lines generated through transfection of the cDNA for human GIP R or GLP-1 and selection of stable clones) were seeded at 30,000 cells/well in 96-well microtiter plates coated with 0.01% poly-L-lysine, and grown for 1 day in culture in 200 μl growth medium (DMEM, 10% FCS, Penicillin (100 IU/ml), Streptomycin (100 μg/ml)). On the day of analysis, growth medium was removed and the cells were washed once with […] Tyrode's buffer (Tyrode's Salts (9.6 g/1), 10 mM HEPES, pH 7.4). […] The Assay buffer was removed and cells are lysed in 80 μl Lysis buffer (0.1% w/v BSA, 5 mM HEPES, 0.3% v/v Tween-20) per well. From each well 10 μl lysed cells was transferred to a 384-well plate and mixed with 15 μl bead-mix (1 Unit/15 μl anti-cAMP Acceptor Beads, 1 Unit/15 μl Donor Beads, and 1 Unit/15 μl Biotinylated cAMP in Assay Buffer). The plates were mixed and incubated in the dark for an hour at room temperature before measuring using an Envision™ plate reader (Perkin-Elmer).
For orientation: In Alpha technology, singlet oxygen from a donor bead excites a nearby acceptor bead.
As usually defined, the EC50 is the midpoint of the concentration-response curve. In the case of `CC[C@H](C)[C@H](NC(=O)[C@H](CO)NC(=O)[C@H](Cc1ccc(O)cc1)NC(=O)[C@H](CC(=O)O)NC(=O)[C@H](CO)NC(=O)[C@@H](NC(=O)[C@H](Cc1ccccc1)NC(=O)[C@@H](NC(=O)CNC(=O)[C@H](CCC(=O)O)NC(=O)C(C)(C)NC(=O)[C@@H](N)Cc1ccc(O)cc1)[C@@H](C)O)[C@@H](C)O)C(=O)N[C@@H](Cc1ccc(O)cc1)C(=O)N[C@@H](CC(C)C)C(=O)N[C@@H](CC(=O)O)C(=O)N[C@@H](CCCCN)C(=O)N[C@@H](CCCCNC(=O)CC[C@H](NC(=O)CCCCCCCCCCCCCCC(=O)O)C(=O)O)C(=O)N[C@@H](C)C(=O)N[C@@H](CCC(N)=O)C(=O)N[C@@H](CCCNC(=N)N)C(=O)N[C@@H](C)C(=O)N[C@@H](Cc1ccccc1)C(=O)N[C@H](C(=O)N[C@@H](CC(N)=O)C(=O)N[C@@H](Cc1c[nH]c2ccccc12)C(=O)N[C@@H](CC(C)C)C(=O)N[C@@H](CC(C)C)C(=O)N[C@@H](C)C(=O)NC(C)(C)C(=O)N[C@@H](CCCCN)C(N)=O)C(C)C` [Compound 31] (H-Y[Aib]EGTFTSDYSIYLDKK([γGlu-C16 diacid])AQRAFVNWLLA[Aib]K-NH2), the EC50 is 0.022 nM.

Regarding `CCCCCCCCCCCCCCCC(=O)N[C@@H](CCC(=O)NCCCC[C@H](NC(=O)[C@H](CCC(=O)O)NC(=O)[C@H](CC(=O)O)NC(=O)[C@H](CC(C)C)NC(=O)[C@H](Cc1ccc(O)cc1)NC(=O)[C@@H](NC(=O)[C@H](CO)NC(=O)[C@H](Cc1ccc(O)cc1)NC(=O)[C@H](CC(=O)O)NC(=O)[C@H](CO)NC(=O)[C@@H](NC(=O)[C@H](Cc1ccccc1)NC(=O)[C@@H](NC(=O)CNC(=O)[C@H](CCC(=O)O)NC(=O)C(C)(C)NC(=O)[C@@H](N)Cc1ccc(O)cc1)[C@@H](C)O)[C@@H](C)O)[C@@H](C)CC)C(=O)N[C@@H](C)C(=O)N[C@@H](C)C(=O)N[C@@H](CCCCN)C(=O)N[C@@H](CC(=O)O)C(=O)N[C@@H](Cc1ccccc1)C(=O)N[C@H](C(=O)N[C@@H](CCC(=O)O)C(=O)N[C@@H](Cc1c[nH]c2ccccc12)C(=O)N[C@@H](CC(C)C)C(=O)N[C@@H](CCC(=O)O)C(=O)N[C@@H](CO)C(=O)N[C@@H](C)C(N)=O)[C@@H](C)CC)C(=O)O` [Compound 50] (H-Y[Aib]EGTFTSDYSIYLDEK([γGlu-Palmitoyl])AAKDFIEWLESA-NH2), the EC50 came out at 0.053 nM.

Consider `CCCCCCCCCCCCCCCC(=O)N[C@@H](CCC(=O)NCCCC[C@H](NC(=O)[C@H](CO)NC(=O)[C@H](CC(=O)O)NC(=O)[C@H](CC(C)C)NC(=O)[C@H](Cc1ccc(O)cc1)NC(=O)[C@@H](NC(=O)[C@H](CO)NC(=O)[C@H](Cc1ccc(O)cc1)NC(=O)[C@H](CC(=O)O)NC(=O)[C@H](CO)NC(=O)[C@@H](NC(=O)[C@H](Cc1ccccc1)NC(=O)[C@@H](NC(=O)CNC(=O)[C@H](CCC(=O)O)NC(=O)C(C)(C)NC(=O)[C@@H](N)Cc1ccc(O)cc1)[C@@H](C)O)[C@@H](C)O)[C@@H](C)CC)C(=O)N[C@@H](C)C(=O)N[C@@H](C)C(=O)N[C@@H](Cc1c[nH]cn1)C(=O)N[C@@H](CC(=O)O)C(=O)N[C@@H](Cc1ccccc1)C(=O)N[C@H](C(=O)N[C@@H](CCC(=O)O)C(=O)N[C@@H](Cc1c[nH]c2ccccc12)C(=O)N[C@@H](CC(C)C)C(=O)N[C@@H](CC(C)C)C(=O)N[C@@H](CCCNC(=N)N)C(=O)N[C@@H](C)C(N)=O)C(C)C)C(=O)O` [Compound 47] (H-Y[Aib]EGTFTSDYSIYLDSK([γGlu-Palmitoyl])AAHDFVEWLLRA-NH2), for which the EC50 worked out at 0.096 nM.
